Our source for the pest or weed control values is patent US11597724B2, “Herbicidally active 3-phenylisoxazoline-5-carboxamides of tetrahydro and dihydrofuran carboxylic acids and esters” (Bayer Aktiengesellschaft, priority 2017, dated 2023).

Common to all, as to type: in vivo
Assay [1] concerns Polygonum convolvulus. As to the kind of experiment: Post-emergence herbicidal activity against POLCO. Conditions: Fallopia convolvulus, 504 h, dosage 320 g/ha, rated about 3 weeks after treatment. The protocol: (§1) POLCO: Polygonum convolvulus SETVI: Setaria viridis 2. Post-Emergence Herbicidal Action and Crop Plant Compatibility Seeds of monocotyledonous and dicotyledonous weeds and crop plants are placed in sandy loam in plastic or wood-fiber pots, covered with soil and cultivated in a greenhouse under controlled growth conditions. 2 to 3 weeks after sowing, the test plants are treated at the one-leaf stage. The compounds of the invention, formulated in the form of wettable powders (WP) or as emulsion concentrates (EC), are then sprayed onto the green parts of the plants as aqueous suspension or emulsion with addition of 0.5% additive at a water application rate of 600 l/ha (converted). After the test plants had been kept in the greenhouse under optimum growth conditions for about 3 weeks, the activity of the preparations is rated visually in comparison to untreated controls. For example, 100% activity=the plants have died, 0% activity=like control plants.

The test system of assay [2] is Alopecurus myosuroides. As to the kind of experiment: Post-emergence herbicidal activity against ALOMY. To be noted: Alopecurus myosuroides, 504 h, dosage 320 g/ha, rated about 3 weeks after treatment. The protocol:
as §1, with “ABUTH: Abutilon theophrasti ALOMY: Alopecurus myosuroides” for “POLCO: Polygonum convolvulus SETVI: Setaria viridis”

Assay [3] relates to Avena fatua. Nature of the assay: Post-emergence herbicidal activity against AVEFA. Conditions: Avena fatua, 504 h, dosage 320 g/ha, rated about 3 weeks after treatment. The protocol:
as §1, with “AMARE: Amaranthus retroflexus AVEFA: Avena fatua” for “POLCO: Polygonum convolvulus SETVI: Setaria viridis”

The subject of assay [4] is Veronica persica. Nature of the assay: Post-emergence herbicidal activity against VERPE. Conditions: Veronica persica, 504 h, dosage 320 g/ha. On the procedure: as §1, with “STEME: Stellaria media VERPE: Veronica persica” for “POLCO: Polygonum convolvulus SETVI: Setaria viridis”
For assay [5], the system named is Echinochloa crus-galli. As to the kind of experiment: Post-emergence herbicidal activity against ECHCG. To be noted: Echinochloa crus-galli, 504 h, dosage 320 g/ha, rated about 3 weeks after treatment. The protocol: as §1, with “ECHCG: Echinochloa crus-galli HORMU: Hordeum murinum” for “POLCO: Polygonum convolvulus SETVI: Setaria viridis”
Assay [6] relates to Setaria viridis. As to the kind of experiment: Post-emergence herbicidal activity against SETVI. To be noted: Setaria viridis, 504 h, dosage 320 g/ha, rated about 3 weeks after treatment. The protocol:
as §1

Assay [7] deals with Pharbitis purpurea. Nature of the assay: Post-emergence herbicidal activity against PHBPU. Conditions: Ipomoea purpurea, 504 h, dosage 320 g/ha, rated about 3 weeks after treatment. The protocol:
as §1, with “LOLRI: Lolium rigidum PHBPU: Pharbitis purpurea” for “POLCO: Polygonum convolvulus SETVI: Setaria viridis”

Assay [8] in a line: Post-emergence treatment, summary over harmful plants. Conditions: 504 h, application rate of 0.32 kg of active substance or less per hectare, read-out: herbicidal action, post-emergence treatment (very good herbicidal activity). On the procedure: 2. Post-Emergence Herbicidal Action and Crop Plant Compatibility
as §1, with “Seeds” for “POLCO: Polygonum convolvulus SETVI: Setaria viridis 2. Post-Emergence Herbicidal Action and Crop Plant Compatibility Seeds”
As shown by the results, compounds according to the invention such as, for example, the compounds No. I-35 and other compounds from the tables (for example I-28, I-38, I-01, I-19, I-36, I-29, I-32, I-11, I-12, I-37, I-06, I-09, I-33, I-34, I-13, I-04, I-26, I-21, I-30, I-05, I-03, I-20, I-27, I-14, I-10, I-23, I-07, I-25, I-02, I-08, I-24, I-41, I-42, I-43, I-44, I-46, I-49, I-54, I-55, I-56) have, when used for post-emergence treatment, very good herbicidal activity (80% to 100% herbicidal action) against harmful plants such as Abutilon theophrasti, Alopecurus myosuroides, Amaranthus retroflexus, Avena fatua, Echinochloa crus-galli, Hordeum murinum, Lolium rigidum, Pharbitis purpurea, Polygonum convolvulus, Setaria viridis, Stellaria media, Veronica persica and Viola tricolor at an application rate of 0.32 kg of active substance or less per hectare.

Assay [9] has as its system Amaranthus retroflexus. Nature of the assay: Post-emergence herbicidal activity against AMARE. Conditions: Amaranthus retroflexus, 504 h, dosage 320 g/ha, rated about 3 weeks after treatment. On the procedure: as §1, with “AMARE: Amaranthus retroflexus AVEFA: Avena fatua” for “POLCO: Polygonum convolvulus SETVI: Setaria viridis”
Assay [10] has as its system Stellaria media. As to the kind of experiment: Post-emergence herbicidal activity against STEME. To be noted: Stellaria media, 504 h, dosage 320 g/ha, rated about 3 weeks after treatment. The protocol: as §1, with “STEME: Stellaria media VERPE: Veronica persica” for “POLCO: Polygonum convolvulus SETVI: Setaria viridis”
For assay [11], the system named is Hordeum murinum. Nature of the assay: Post-emergence herbicidal activity against HORMU. To be noted: Hordeum murinum, 504 h, dosage 320 g/ha. On the procedure: as §1, with “ECHCG: Echinochloa crus-galli HORMU: Hordeum murinum” for “POLCO: Polygonum convolvulus SETVI: Setaria viridis”

With `C=C[C@@]1(C(=O)N[C@H]2CO[C@@H](C(=O)OC)C2)CC(c2cc(F)cc(F)c2)=NO1` (mixture of isomers) [I-22, methyl cis-4-[[(5R)-3-(3,5-difluorophenyl)-5-vinyl-4H-isoxazole-5-carbonyl]amino]tetrahydrofuran-2-carboxylate], the pest or weed control at 320 g/ha in assay [1] stood at 90%.
As to `CCOC(=O)C1(NC(=O)C2(C)CC(c3cc(F)cc(F)c3)=NO2)CCOC1` (stereo not drawn) [I-18, ethyl 3-[[3-(3,5-difluorophenyl)-5-methyl-4H-isoxazole-5-carbonyl]amino]tetrahydrofuran-3-carboxylate], the pest or weed control at 320 g/ha in [2] came out at 80%; in assay [3], 100%; in assay [4], 80%.
Consider `COC(=O)[C@H]1C[C@@H](NC(=O)C2(C)CC(c3cccc(F)c3)=NO2)CO1` (relative stereo) [I-13, methyl cis-4-[[3-(3-fluorophenyl)-5-methyl-4H-isoxazole-5-carbonyl]amino]tetrahydrofuran-2-carboxylate], for which the pest or weed control at 320 g/ha is 90% in assay [2]; 90% in assay [3]; 80% in assay [5]; 80% in assay [6]; 90% in [7]; 80% in [1]. Moreover, the values for the pest or weed control at 320 g/ha in [4] and in assay [8] were 80% and 80 to 100%, respectively.
Consider `COC(=O)C1(NC(=O)C2(C)CC(c3cc(F)cc(F)c3)=NO2)CCOC1` (stereo not drawn) [I-17, methyl 3-[[3-(3,5-difluorophenyl)-5-methyl-4H-isoxazole-5-carbonyl]amino]tetrahydrofuran-3-carboxylate], for which the pest or weed control at 320 g/ha in assay [3] is 80%; in [1], 90%.
Consider `COC(=O)[C@]1(OC)C[C@H](NC(=O)C2(C)CC(c3cccc(F)c3)=NO2)CO1` (stereo partly drawn) [I-40, methyl (2S,4S)-4-[[3-(3-fluorophenyl)-5-methyl-4H-isoxazole-5-carbonyl]amino]-2-methoxytetrahydrofuran-2-carboxylate], for which the pest or weed control at 320 g/ha came out at 90% in assay [2]; 80% in assay [5]; 80% in [6]; 80% in [9]; 90% in assay [7]; 80% in [1]. The results for the pest or weed control at 320 g/ha in assay [10], in [4] and in [11] were 80%, 80% and 90%, respectively.
Turning to `CC1(C(=O)N[C@H]2CO[C@@H](C(=O)O)C2)CC(c2cccc(F)c2)=NO1` (relative stereo) [I-20, cis-4-[[3-(3-fluorophenyl)-5-methyl-4H-isoxazole-5-carbonyl]amino]tetrahydrofuran-2-carboxylic acid], the pest or weed control at 320 g/ha in [2] stood at 90%; in assay [3] it was 90%; in [5], 80%; in assay [6], 80%; in [9], 80%; in assay [7], 80%. In addition, the pest or weed control at 320 g/ha is 80% in assay [1], 80% in [10], 90% in assay [4] and 80 to 100% in assay [8].
